Where two headings read alike, the source gives them in different places.
Description: The contents of the IV bag were infused over a two hour period. […] Each patient was dosed on a 28 day cycle, comprising an infusion once a week for the first three weeks of the cycle on days 1, 8, and 15 of each cycle, with no dose administered in the week following the third dose.
[1] = Table V, 2 hour IV infusion, 0.66 mg/M^2
[2] = Table V, 2 hour IV infusion, 1.85 mg/M^2
[3] = Table V, 2 hour IV infusion, 2.59 mg/M^2
[4] = Table V, 2 hour IV infusion, 3.63 mg/M^2
[5] = Table V, 2 hour IV infusion, 3.7 mg/M^2
[6] = Table V, 2 hour IV infusion, 7.4 mg/M^2
[7] = Table V, 2 hour IV infusion, 14.8 mg/M^2
[8] = Table V, 2 hour IV infusion, 29.6 mg/M^2
[9] = Table V, 2 hour IV infusion, 41.4 mg/M^2
[10] = Table V, 2 hour IV infusion, […]^2
[11] = Table VI, 2 hour IV infusion, 1.85 mg/m^2, N 1
[12] = Table VI, 2 hour IV infusion, 3.7 mg/m^2, N 1
[13] = Table VI, 2 hour IV infusion, 7.4 mg/m^2, N 1
[14] = Table VI, 2 hour IV infusion, 14.8 mg/m^2, N 1
[15] = Table VI, 2 hour IV infusion, 29.6 mg/m^2, N 6
[16] = Table VI, 2 hour IV infusion, 41.4 mg/m^2, N 6
[17] = Table VI, 2 hour IV infusion, 50 mg/m^2, N 10
[18] = Table VI, 2 hour IV infusion, 58 mg/m^2, N 3
[19] = Table VII, 2 hour IV infusion, 1.85 mg/m^2, N 1
[20] = Table VII, 2 hour IV infusion, 3.7 mg/m^2, N 1
[21] = Table VII, 2 hour IV infusion, 7.4 mg/m^2, N 1
[22] = Table VII, 2 hour IV infusion, 14.8 mg/m^2, N 1
[23] = Table VII, 2 hour IV infusion, 29.6 mg/m^2, N 5
[24] = Table VII, 2 hour IV infusion, 41.4 mg/m^2, N 6
[25] = Table VII, 2 hour IV infusion, 50 mg/m^2, N 10
[26] = Table VII, 2 hour IV infusion, 58 mg/m^2, N 3
[27] = Table VIII cumulative data, Day 1, 2-hour IV infusion, 0.66 mg/m^2, N 1
[28] = Table VIII cumulative data, Day 1, 2-hour IV infusion, 1.32 mg/m^2, N 1
[29] = Table VIII cumulative data, Day 1, 2-hour IV infusion, 1.85 mg/m^2, N 5
[30] = Table VIII cumulative data, Day 1, 2-hour IV infusion, 1.85 mg/m^2, N = 4
[31] = Table VIII cumulative data, Day 1, 2-hour IV infusion, 2.59 mg/m^2, N 3
[32] = Table VIII cumulative data, Day 1, 2-hour IV infusion, 2.59 mg/m^2, N = 2
[33] = Table VIII cumulative data, Day 1, 2-hour IV infusion, 3.63 mg/m^2, N 7
[34] = Table VIII cumulative data, Day 1, 2-hour IV infusion, 3.63 mg/m^2, N = 6
[35] = Table VIII cumulative data, Day 1, 2-hour IV infusion, 3.7 mg/m^2, N 1
[36] = Table VIII cumulative data, Day 1, 2-hour IV infusion, 5.08 mg/m^2, N 3
[37] = Table VIII cumulative data, Day 1, 2-hour IV infusion, 7.11 mg/m^2, N 1
[38] = Table VIII cumulative data, Day 1, 2-hour IV infusion, 7.4 mg/m^2, N 1
[39] = Table VIII cumulative data, Day 1, 2-hour IV infusion, 14.8 mg/m^2, N 1
[40] = Table VIII cumulative data, Day 1, 2-hour IV infusion, 29.6 mg/m^2, N 6
[41] = Table VIII cumulative data, Day 1, 2-hour IV infusion, 29.6 mg/m^2, N = 5
[42] = Table VIII cumulative data, Day 1, 2-hour IV infusion, 41.4 mg/m^2, N 6
[43] = Table VIII cumulative data, Day 1, 2-hour IV infusion, 50 mg/m^2, N 10
[44] = Table VIII cumulative data, Day 1, 2-hour IV infusion, 58 mg/m^2, N 3
[45] = Table VIII cumulative data, Day 1, 2-hour IV infusion, […]^2, N 1

CCc1cnn2c(NCc3ccc[n+]([O-])c3)cc(N3CCCC[C@H]3CCO)nc12 [Formula II]
drug accumulation (1.85 mg/m^2 on days 1, 8, 15 of 28 day cycle): drug accumulation is not evident
dosage at which plasma levels of 25 nM (10 ng/mL) are available (2-hour infusions): greater than 1.32 mg/m^2
AUC [1]: 32.1 ng·h/mL
CL [1]: 20.6 L/(hr m^2)
Cmax [1]: 18.6 ng/mL
t1/2 [1]: 1.48 h
Cmax (Table V, 2 hour IV infusion, 1.32 mg/M^2): 63.8 ng/mL
AUC [2]: 201.2 (38) ng hr/mL
CL [2]: 10.2 (36) L/(hr m^2)
Cmax [2]: 95.7 (26) ng/mL
t1/2 [2]: 2.29 (45) hours
AUC [3]: 213 (35) ng hr/mL
CL [3]: 12.9 (35) L/(hr m^2)
t1/2 [3]: 3.0 (1) hours
AUC [4]: 423 (91) ng hr/mL
CL [4]: 14.7 (91) L/(hr m^2)
Cmax [4]: 163 (63) ng/mL
t1/2 [4]: 2.56 (38) hours
AUC [5]: 336 ng·h/mL
CL [5]: 11.0 L/(hr m^2)
Cmax [5]: 136 ng/mL
t1/2 [5]: 2.75 h
AUC [6]: 972 ng·h/mL
CL [6]: 7.62 L/(hr m^2)
Cmax [6]: 353 ng/mL
t1/2 [6]: 2.86 h
AUC [7]: 1053 ng·h/mL
CL [7]: 14.1 L/(hr m^2)
Cmax [7]: 396 ng/mL
t1/2 [7]: 2.78 h
AUC [8]: 2434 (45) ng hr/mL
CL [8]: 14.0 (40) L/(hr m^2)
Cmax [8]: 890 (44) ng/mL
t1/2 [8]: 2.98 (11) hours
AUC [9]: 3041 (51) ng hr/mL
Cmax [9]: 1343 (48) ng/mL
t1/2 [9]: 2.80 (29) hours
CL [10]: 13.1 L/(hr m^2)
t1/2 [10]: 2.01 h
AUC(tf) Mean [11]: 134 ng·h/mL
Cmax Mean [11]: 62.5 ng/mL
Tmax Median [11]: 1 h
tf Median [11]: 8 h
AUC(tf) Mean [12]: 336 ng·h/mL
Cmax Mean [12]: 136 ng/mL
Tmax Median [12]: 2 h
tf Median [12]: 24 h
AUC(tf) Mean [13]: 970 ng·h/mL
Cmax Mean [13]: 353 ng/mL
Tmax Median [13]: 2 h
tf Median [13]: 24 h
AUC(tf) Mean [14]: 1050 ng·h/mL
Cmax Mean [14]: 396 ng/mL
Tmax Median [14]: 2 h
tf Median [14]: 24 h
AUC(tf) Mean [15]: 2040 ng·h/mL
Cmax Mean [15]: 890 ng/mL
Tmax Median [15]: 1 h
tf Median [15]: 24 h
AUC(tf) Mean [16]: 2870 ng·h/mL
Cmax Mean [16]: 1300 ng/mL
Tmax Median [16]: 2 h
tf Median [16]: 24 h
AUC(tf) Mean [17]: 4050 ng·h/mL
Cmax Mean [17]: 1820 ng/mL
Tmax Median [17]: 1.5 h
tf Median [17]: 24 h
AUC(tf) Mean [18]: 3290 ng·h/mL
Cmax Mean [18]: 1460 ng/mL
Tmax Median [18]: 1 h
tf Median [18]: 24 h
AUC(I) Mean [19]: 136 ng·h/mL
CL Mean [19]: 13.6 L/hr/m^2
t½ Mean [19]: 1.42 h
AUC(I) Mean [20]: 336 ng·h/mL
CL Mean [20]: 11.0 L/hr/m^2
t½ Mean [20]: 2.75 h
AUC(I) Mean [21]: 972 ng·h/mL
CL Mean [21]: 7.62 L/hr/m^2
t½ Mean [21]: 2.86 h
AUC(I) Mean [22]: 1050 ng·h/mL
CL Mean [22]: 14.1 L/hr/m^2
t½ Mean [22]: 2.78 h
AUC(I) Mean [23]: 2430 ng·h/mL
CL Mean [23]: 14.0 L/hr/m^2
t½ Mean (Table VII, 2 hour IV infusion, 29.6 mg/m^2, n = 4): 2.98 h
AUC(I) Mean [24]: 2890 ng·h/mL
CL Mean [24]: 26.8 L/hr/m^2
t½ Mean [24]: 2.84 h
AUC(I) Mean [25]: 4090 ng·h/mL
CL Mean [25]: 16.3 L/hr/m^2
t½ Mean [25]: 2.90 h
AUC(I) Mean [26]: 3300 ng·h/mL
CL Mean [26]: 19.7 L/hr/m^2
t½ Mean [26]: 3.15 h
AUC(I) Mean [27]: 32.1 ng·h/mL
CL Mean [27]: 20.6 L/hr/m^2
Cmax Mean [27]: 18.6 ng/mL
Tmax Median [27]: 2 h
t½ Mean [27]: 1.48 h
Cmax Mean [28]: 63.8 ng/mL
Tmax Median [28]: 2 h
Cmax Mean [29]: 91.0 ng/mL
Tmax Median [29]: 2 h
AUC(I) Mean [30]: 201 ng·h/mL
CL Mean [30]: 10.2 L/hr/m^2
t½ Mean [30]: 2.29 h
Cmax Mean [31]: 124 ng/mL
Tmax Median [31]: 1 h
AUC(I) Mean [32]: 213 ng·h/mL
CL Mean [32]: 12.9 L/hr/m^2
t½ Mean [32]: 3.02 h
Cmax Mean [33]: 195 ng/mL
Tmax Median [33]: 1 h
AUC(I) Mean [34]: 446 ng·h/mL
CL Mean [34]: 11.3 L/hr/m^2
t½ Mean [34]: 2.63 h
AUC(I) Mean [35]: 336 ng·h/mL
CL Mean [35]: 11.0 L/hr/m^2
Cmax Mean [35]: 136 ng/mL
Tmax Median [35]: 2 h
t½ Mean [35]: 2.75 h
AUC(I) Mean [36]: 327 ng·h/mL
CL Mean [36]: 15.9 L/hr/m^2
Cmax Mean [36]: 173 ng/mL
Tmax Median [36]: 2 h
t½ Mean [36]: 3.19 h
AUC(I) Mean [37]: 588 ng·h/mL
CL Mean [37]: 12.1 L/hr/m^2
Cmax Mean [37]: 347 ng/mL
Tmax Median [37]: 1 h
t½ Mean [37]: 3.16 h
AUC(I) Mean [38]: 972 ng·h/mL
CL Mean [38]: 7.62 L/hr/m^2
Cmax Mean [38]: 353 ng/mL
Tmax Median [38]: 2 h
t½ Mean [38]: 2.86 h
AUC(I) Mean [39]: 1050 ng·h/mL
CL Mean [39]: 14.1 L/hr/m^2
Cmax Mean [39]: 396 ng/mL
Tmax Median [39]: 2 h
t½ Mean [39]: 2.78 h
Cmax Mean [40]: 890 ng/mL
Tmax Median [40]: 1 h
AUC(I) Mean [41]: 2430 ng·h/mL
CL Mean [41]: 14.0 L/hr/m^2
t½ Mean [41]: 2.98 h
AUC(I) Mean [42]: 2890 ng·h/mL
CL Mean [42]: 26.8 L/hr/m^2
Cmax Mean [42]: 1300 ng/mL
Tmax Median [42]: 2 h
t½ Mean [42]: 2.84 h
AUC(I) Mean [43]: 4090 ng·h/mL
CL Mean [43]: 16.3 L/hr/m^2
Cmax Mean [43]: 1820 ng/mL
Tmax Median [43]: 1.5 h
t½ Mean [43]: 2.90 h
AUC(I) Mean [44]: 3300 ng·h/mL
CL Mean [44]: 19.7 L/hr/m^2
Cmax Mean [44]: 1460 ng/mL
Tmax Median [44]: 1 h
t½ Mean [44]: 3.15 h
CL Mean [45]: 13.1 L/hr/m^2
Tmax Median [45]: 1 h
t½ Mean [45]: 2.01 h
clearance versus dose (dosages of from […]^2 to 41.4 mg/m^2): clearance is dosage independent
exposure (AUC) versus dose (dosages of from […]^2 to 41.4 mg/m^2, day 1 and day 15): dose-proportional increases in exposure
AUC (two hour infusion, 3.7 mg/M^2): about 336 ng hr/mL
Cmax (two hour infusion, 3.7 mg/M^2): about 136 ng/ml
t1/2 (two hour infusion, 3.7 mg/M^2): about 2.75 hours
Cmax (two hour infusion, 7.4 mg/M^2): about 353 ng/ml
t1/2 (two hour infusion, 7.4 mg/M^2): about 2.86 hours
Cmax (two hour infusion, 14.8 mg/M^2): about 396 ng/ml
t1/2 (two hour infusion, 14.8 mg/M^2): about 2.78 hours
t1/2 (two hour infusion, 41.4 mg/M^2): about 2.8 hours
Cmax (two hour infusion, 50 mg/M^2): about 1820 ng/ml
t1/2 (two hour infusion, 50 mg/M^2): about 2.9 hours
Cmax (two hour infusion, 58 mg/M^2): about 1460 ng/ml
t1/2 (two hour infusion, 58 mg/M^2): about 3.2 hours
